Assay results from EP2927685A1, “Suitable hepatocytes for in-vitro hepatitis tests” (Medicyte GmbH, priority 2014, dated 2015).
Read-outs that look alike come from different tables or passages of the source.

Key:
[1] = system: primary human hepatocyte transduced with HPV E6 and E7 genes
[2] = system: differentiated hepatocytes; assay: Apoptosis quantification by TUNEL
[3] = system: differentiated hepatocytes; conditions: human, 48 h
[4] = system: CYP1A1; assay: Cytochrome P450 induction in differentiated hepatocytes (CYP1A1); format: in vitro ADME, human; conditions: 50 µM omeprazole, normalized to vehicle-only controls
[5] = system: differentiated hepatocytes; assay: Intrahepatic cholestasis: bile secretion by CDFDA staining; format: cell-based, human; conditions: 24 hours of exposure, compared to melatonin
[6] = system: CYP3A4/5, 2E1, 2B6 and 1A1; assay: Cytochrome P450 inhibition in differentiated hepatocytes; format: in vitro ADME, human; conditions: after 30 min of incubation, 200 µM naringenin
[7] = system: CYP450; conditions: human, hepatocytes, 72 h, 200 µM

## N#CC(=C(/N)Sc1ccccc1N)/C(C#N)=C(\N)Sc1ccccc1N [U0126]
[1]
  epithelial phenotype of the cells: stable E-Cadherin positive epithelial phenotype

## COc1ccc2[nH]cc(CCNC(C)=O)c2c1 [melatonin]
[2]; differentiated hepatocytes exposed for 24 hours to TC20 values, TUNEL
  Percent apoptosis (positive nuclei): 4%

## CC(=O)Oc1ccccc1C(=O)O [acetylsalicylic acid]
[3]
  increase in intracellular lipids compared to control: 33-47%

## COc1ccc2[nH]c([S+]([O-])Cc3ncc(C)c(OC)c3C)nc2c1 (stereo not drawn) [omeprazole]
[4]
  CYP1A1 increased by stimulation: 10 folds

## aflatoxin B1
[2]
  Percent apoptosis (positive nuclei): 23%

## Cc1c(C)c2c(c(C)c1O)CCC(C)(COc1ccc(CC3SC(=O)NC3=O)cc1)O2 (stereo not drawn) [troglitazone]
[5]
  bile secretion (measure of intrahepatic cholestasis): loss of bile secretion function

## CN(C)CCCN1c2ccccc2Sc2ccc(Cl)cc21 [chlorpromazine]
[5]
  bile secretion (measure of intrahepatic cholestasis): loss of bile secretion function

## O=C1C[C@@H](c2ccc(O)cc2)Oc2cc(O)cc(O)c21 [naringenin]
[6]
  inhibition of CYP3A4/5, 2E1, 2B6 and 1A1: drastically inhibited
[7]
  increase in CYP450 activity compared with vehicle-treated cells: 5-7 fold
